Source: US6881756B2, “Method for treating skin disorders” (Johnson & Johnson Consumer Companies, Inc., priority 2001, dated 2005)

Assays:
[1] = system: Albino male CD-1 mice; test: Neurosensory (neurogenic) inflammation model: resiniferatoxin-induced ear edema; assay type: in vivo, mouse; conditions: for activity in the neurosensory inflammation model (in words): resiniferatoxin ear edema model, overall; for % Inhibition of the Ear Edema: 20 μl to left ear, biopsy weight at 30 minutes
From the text: Neurosensory inflammation, also referred to as neurogenic inflammation, is a type of inflammation triggered by sensory nerve activation in skin. Certain natural substances that act on vanilloid receptors cause the nerves (C-fibers) to release inflammatory neuropeptides such as substance P and calcitonin gene-related peptide. In mouse skin, an edema response rapidly occurs upon application of either the vanilloid receptor activators, capsaicin or resiniferatoxin. Compounds that inhibit the response to neurosensory stimulation could be useful as topical analgesics, itch inhibitors or soothing agents for irritated or damaged skin. See U.S. Pat. No. 6,090,811.
Albino male CD-1 mice, 7-9 weeks old, were used. Resiniferatoxin alone (0.05%) or a combination of 0.05% resiniferatoxin with test compound was made in acetone. A 20-μl volume of the solutions was applied to the left ears (10 mice per treatment group). The right ear was not treated. The mice were sacrificed by CO2 inhalation 30 minutes after applying the solutions. The left and right ears were removed and a 7-mm biopsy was removed from each ear and weighed. The difference in biopsy weights between the right and left ear was calculated. The percent inhibition was calculated by comparing treatments to resiniferatoxin alone. Anti-edema effects of compounds are evident as an inhibition of the increase in ear weight.

[2] = system: Albino male CD-1 mice; test: Allergic contact dermatitis model: oxazolone-induced ear swelling; assay type: in vivo, mouse; conditions: for % Inhibition of the Ear Swelling Response: 20 μL to left ear 1 hour after oxazolone challenge, ear biopsy weight at 24 hours
Experimental: Allergic contact dermatitis is an animal model of skin inflammation that mimics many aspects of human skin inflammation. See Young J M, De Young L M, Cutaneous Models of Inflammation for the Evaluation of Topical and Systemic Pharmacological Agents; In: Pharmacological Methods in the Control of Inflammation, Alan R. Liss, Inc, pp. 215-231 (1989). […] The inflammatory response is established by using oxazolone as the chemical sensitizer. A topical anti-inflammatory agent is assessed by measuring its ability to suppress the ear swelling reaction after applying a challenge dose of oxazolone to the ear followed by the test agent.
In this assay, the totarol (Mende-DEK Limited, Masterton, New Zealand) was evaluated against hydrocortisone, a steroid known to inhibit allergic contact dermatitis. Albino male CD-1 mice, 7-9 weeks old, were induced on the shaved abdomen with 50 μL of 3% oxazolone in acetone/corn oil (Day 0). On Day 5, a 20 μL volume of 2% oxazolone in acetone was applied to the dorsal left ear of the mouse. Test agents were applied to the left ear (20 μL) 1 hour after oxazolone challenge in a 70% ethanol/30% propylene glycol vehicle. The right ear was not treated. The mice were sacrificed by CO2 inhalation 24 hours after the oxazolone challenge, the left and right ears were removed and a 7-mm biopsy was taken from each ear and weighed. Anti-inflammatory effects of compounds are evident as an inhibition of the increase in ear weight.

| Structure (SMILES) | activity in the neurosensory inflammation model (in words) [1] | % Inhibition of the Ear Edema ([1]; topical dose 0.5% w/v with 0.05% resiniferatoxin in acetone) [%] | % Inhibition of the Ear Swelling Response ([2]; topical dose 0.001% w/v) [%] | % Inhibition of the Ear Swelling Response ([2]; topical dose 0.01% w/v) [%] | % Inhibition of the Ear Swelling Response ([2]; topical dose 0.1% w/v) [%] | topical anti-inflammatory activity (in words) ([2]; oxazolone allergic contact dermatitis model, overall) | % Inhibition of the Ear Swelling Response ([2]; topical dose 0.03% w/v) [%] | % Inhibition of the Ear Swelling Response ([2]; topical dose 0.3% w/v) [%] | % Inhibition of the Ear Swelling Response ([2]; topical dose 1% w/v) [%] | activity compared with hydrocortisone (in words) ([2]; totarol at its two highest doses vs highest dose of hydrocortisone) | % Inhibition of the Ear Edema ([1]; topical dose 1% w/v with 0.05% resiniferatoxin in acetone) [%] |
| --- | --- | --- | --- | --- | --- | --- | --- | --- | --- | --- | --- |
| CCCCC/C=C\C/C=C\C/C=C\C/C=C\CCCC(=O)NCc1ccc(O)c(OC)c1 [Arvanil, reference compound] | also active | 26.8 | – | – | – | – | – | – | – | – | – |
| C[C@]12CCC(=O)C=C1CC[C@@H]1[C@@H]2[C@@H](O)C[C@@]2(C)[C@H]1CC[C@]2(O)C(=O)CO [Hydrocortisone, reference compound] | – | – | 36.0 | 65.5 | 84.2 | – | – | – | – | – | – |
| CC(C)c1c(O)ccc2c1CC[C@H]1C(C)(C)CCC[C@]21C [Totarol] | highly effective | – | – | – | – | highly effective as a topical anti-inflammatory agent with dose-dependent inhibition of the inflammatory response | 44.6 | 80.0 | 82.3 | equivalent in activity to the highest dose of hydrocortisone | 46.6 |
